Test results taken from patent publication US7179805B2, “7-amino alkylidenyl-heterocyclic quinolones and naphthyridones” (Janssen Pharmaceutica N.V., priority 2003, dated 2007).

How the values were obtained:
[1] = system: Staphylococcus aureus OC4172; assay: MIC, microdilution broth method (NCCLS); format: cell-based; settings: organism A: Staphylococcus aureus OC4172; 35° C., 16–20 hours
Protocol: (§1) Minimal inhibitory concentration (MIC) has been an indicator of in vitro antibacterial activity widely used in the art. The in vitro antimicrobial activity of the compounds was determined by the microdilution broth method following the test method from the National Committee for Clinical Laboratory Standards (NCCLS). This method is described in the NCCLS Document M7-A4, Vol.17, No.2, “Methods for Dilution Antimicrobial Susceptibility Test for Bacteria that Grow Aerobically—Fourth Edition”, which is incorporated herein by reference.
(§2) In this method two-fold serial dilutions of drug in cation adjusted Mueller-Hinton broth are added to wells in microdilution trays. The test organisms are prepared by adjusting the turbidity of actively growing broth cultures so that the final concentration of test organism after it is added to the wells is approximately 5×10^4 CFU/well.
(§3) Following inoculation of the microdilution trays, the trays are incubated at 35° C. for 16–20 hours and then read. […] The amount of growth in the wells containing the test compound is compared with the amount of growth in the growth-control wells (no test compound) used in each tray. As set forth in Table 5, compounds of the present invention were tested against a variety of pathogenic bacteria resulting in a range of activities depending on the organism tested.

[2] = system: Streptococcus pneumoniae ATCC 49619; assay: MIC, microdilution broth method (NCCLS); format: cell-based; settings: ATCC49619; organism E: Streptococcus pneumoniae ATCC 49619; 35° C., 16–20 hours
Protocol: as §1, §2, §3

CNCC=C1CCN(c2c(F)cc3c(=O)c(C(=O)O)cn(C4CC4)c3c2OC)CC1.O=C(O)C(F)(F)F [Compound 221, 1-Cyclopropyl-6-fluoro-8-methoxy-7-[4-(2-methylaminoethylidene)piperidin-1-yl]-4-oxo-1,4-dihydroquinoline-3-carboxylic acid trifluoroacetic acid salt]
MIC [1]: 0.12 µg/mL
MIC [2]: 0.5 µg/mL

NCC(F)=C1CCN(c2cc3c(cc2F)c(=O)c(C(=O)O)cn3C2CC2)CC1.O=C(O)C(F)(F)F [Compound 5, 7-[4-(2-Amino-1-fluoro-ethylidene)piperidin-1-yl]-1-cyclopropyl-6-fluoro-4-oxo-1,4-dihydroquinoline-3-carboxylic acid trifluoroacetic acid salt]
MIC [2]: 0.06 µg/mL
